ChEMBL document CHEMBL3885861, “Open TG-GATES”

Species on record: Rattus norvegicus
Test: Open TG-GATES - Regimen: Daily Repeat
Type: toxicity, organism-based, Sprague-Dawley
Set-up: regimen Daily Repeat, gender Male, age 6 weeks
Conditions: in vivo, po, 300 mg/kg, route gavage, dose level High; for APTT / Bas / Eos / Fbg / Hb / Ht / Lym / MCH / MCHC / MCV / Mono / Neu / PT / Plat / RBC / Ret / WBC: tissue Blood; for KIDNEY_L / KIDNEY_R / KIDNEY_TOTAL: tissue Kidney; for LIVER: tissue Liver; for A/G / ALP / ALT / AST / BUN / CRE / Ca / Cl / DBIL / GLC / IP / K / LDH / Na / PL / RALB / TBIL / TC / TG / TP / gamma-GTP: tissue Plasma

CC[C@H]1[C@@H]2C[C@H]3[C@@H]4N(C)c5ccccc5[C@]45C[C@@H]([C@@H]2[C@H]5O)N3[C@@H]1O [AJMALINE]
TERMINAL_BW (72 h, time 3 day): 209.6 g
APTT (72 h, time 3 day): 16.2 s
Bas (72 h, time 3 day): 0%
Eos (72 h, time 3 day): 1%
Fbg (72 h, time 3 day): 214 mg/dL
Hb (72 h, time 3 day): 12.9 g/dL
Ht (72 h, time 3 day): 39.7%
Lym (72 h, time 3 day): 82.8%
MCH (72 h, time 3 day): 20.9 pg
MCHC (72 h, time 3 day): 32.4%
MCV (72 h, time 3 day): 64.4 fL
Mono (72 h, time 3 day): 7.2%
Neu (72 h, time 3 day): 9.6%
PT (72 h, time 3 day): 11.6 s
Plat (72 h, time 3 day): 121.1 x10_4/uL
RBC (72 h, time 3 day): 616.8 x10_4/ul
Ret (72 h, time 3 day): 7.8%
WBC (72 h, time 3 day): 133 x10_2/uL
KIDNEY_L (72 h, time 3 day): 0.9 g
KIDNEY_R (72 h, time 3 day): 0.9 g
KIDNEY_TOTAL (72 h, time 3 day): 1.9 g
LIVER (72 h, time 3 day): 10.3 g
A/G (72 h, time 3 day): 2
ALP (72 h, time 3 day): 989.6 IU/L
ALT (72 h, time 3 day): 44.2 IU/L
AST (72 h, time 3 day): 68.2 IU/L
BUN (72 h, time 3 day): 17 mg/dL
CRE (72 h, time 3 day): 0.5 mg/dL
Ca (72 h, time 3 day): 11.5 mg/dL
Cl (72 h, time 3 day): 100.4 meq/L
DBIL (72 h, time 3 day): 0.034 mg/dL
GLC (72 h, time 3 day): 200 mg/dL
IP (72 h, time 3 day): 8.3 mg/dL
K (72 h, time 3 day): 4.4 meq/L
LDH (72 h, time 3 day): 123.2 IU/L
Na (72 h, time 3 day): 138.8 meq/L
PL (72 h, time 3 day): 150 mg/dL
RALB (72 h, time 3 day): 3.6 g/dL
TBIL (72 h, time 3 day): 0.3 mg/dL
TC (72 h, time 3 day): 87.6 mg/dL
TG (72 h, time 3 day): 57.2 mg/dL
TP (72 h, time 3 day): 5.4 g/dL
gamma-GTP (72 h, time 3 day): 0.8 IU/L
TERMINAL_BW ([…], time 7 day): 244.7 g
TERMINAL_BW ([…], time 14 day): 293.9 g
TERMINAL_BW ([…], time 28 day): 349.6 g
APTT ([…], time 7 day): 16.4 s
Bas ([…], time 7 day): 0%
Eos ([…], time 7 day): 0.8%
Fbg ([…], time 7 day): 225.6 mg/dL
Hb ([…], time 7 day): 13.2 g/dL
Ht ([…], time 7 day): 39.9%
Lym ([…], time 7 day): 81%
MCH ([…], time 7 day): 21.1 pg
MCHC ([…], time 7 day): 33.1%
MCV ([…], time 7 day): 63.6 fL
Mono ([…], time 7 day): 4.4%
Neu ([…], time 7 day): 13.4%
PT ([…], time 7 day): 11.3 s
Plat ([…], time 7 day): 142.3 x10_4/uL
RBC ([…], time 7 day): 627.2 x10_4/ul
Ret ([…], time 7 day): 7%
WBC ([…], time 7 day): 118.8 x10_2/uL
APTT ([…], time 14 day): 16.3 s
Bas ([…], time 14 day): 0%
Eos ([…], time 14 day): 1%
Fbg ([…], time 14 day): 234.8 mg/dL
Hb ([…], time 14 day): 13.9 g/dL
Ht ([…], time 14 day): 42%
Lym ([…], time 14 day): 83.2%
MCH ([…], time 14 day): 20.8 pg
MCHC ([…], time 14 day): 33.1%
MCV ([…], time 14 day): 62.7 fL
Mono ([…], time 14 day): 4.2%
Neu ([…], time 14 day): 11.8%
PT ([…], time 14 day): 11.2 s
Plat ([…], time 14 day): 140.6 x10_4/uL
RBC ([…], time 14 day): 670 x10_4/ul
Ret ([…], time 14 day): 5.6%
WBC ([…], time 14 day): 139.9 x10_2/uL
APTT ([…], time 28 day): 17.3 s
Bas ([…], time 28 day): 0%
Eos ([…], time 28 day): 1.2%
Fbg ([…], time 28 day): 244.2 mg/dL
Hb ([…], time 28 day): 15.3 g/dL
Ht ([…], time 28 day): 45.1%
Lym ([…], time 28 day): 80.8%
MCH ([…], time 28 day): 19.8 pg
MCHC ([…], time 28 day): 33.9%
MCV ([…], time 28 day): 58.3 fL
Mono ([…], time 28 day): 5%
Neu ([…], time 28 day): 13.4%
PT ([…], time 28 day): 11.3 s
Plat ([…], time 28 day): 141.8 x10_4/uL
RBC ([…], time 28 day): 772.4 x10_4/ul
Ret ([…], time 28 day): 2.8%
WBC ([…], time 28 day): 147.5 x10_2/uL
KIDNEY_L ([…], time 7 day): 1.1 g
KIDNEY_R ([…], time 7 day): 1.1 g
KIDNEY_TOTAL ([…], time 7 day): 2.2 g
KIDNEY_L ([…], time 14 day): 1.2 g
KIDNEY_R ([…], time 14 day): 1.2 g
KIDNEY_TOTAL ([…], time 14 day): 2.4 g
KIDNEY_L ([…], time 28 day): 1.3 g
KIDNEY_R ([…], time 28 day): 1.4 g
KIDNEY_TOTAL ([…], time 28 day): 2.7 g
LIVER ([…], time 7 day): 11.7 g
LIVER ([…], time 14 day): 13.4 g
LIVER ([…], time 28 day): 15.4 g
A/G ([…], time 7 day): 1.9
ALP ([…], time 7 day): 944.4 IU/L
ALT ([…], time 7 day): 37 IU/L
AST ([…], time 7 day): 57.8 IU/L
BUN ([…], time 7 day): 16.8 mg/dL
CRE ([…], time 7 day): 0.5 mg/dL
Ca ([…], time 7 day): 11.6 mg/dL
Cl ([…], time 7 day): 103 meq/L
DBIL ([…], time 7 day): 0.026 mg/dL
GLC ([…], time 7 day): 189.8 mg/dL
IP ([…], time 7 day): 8.3 mg/dL
K ([…], time 7 day): 4.6 meq/L
LDH ([…], time 7 day): 98.8 IU/L
Na ([…], time 7 day): 141.4 meq/L
PL ([…], time 7 day): 142 mg/dL
RALB ([…], time 7 day): 3.5 g/dL
TBIL ([…], time 7 day): 0.4 mg/dL
TC ([…], time 7 day): 80.8 mg/dL
TG ([…], time 7 day): 56.8 mg/dL
TP ([…], time 7 day): 5.4 g/dL
gamma-GTP ([…], time 7 day): 1.2 IU/L
A/G ([…], time 14 day): 2.1
ALP ([…], time 14 day): 849.4 IU/L
ALT ([…], time 14 day): 35.4 IU/L
AST ([…], time 14 day): 62.2 IU/L
BUN ([…], time 14 day): 17.8 mg/dL
CRE ([…], time 14 day): 0.5 mg/dL
Ca ([…], time 14 day): 11.4 mg/dL
Cl ([…], time 14 day): 102.6 meq/L
DBIL ([…], time 14 day): 0.022 mg/dL
GLC ([…], time 14 day): 201.8 mg/dL
IP ([…], time 14 day): 8.2 mg/dL
K ([…], time 14 day): 4.8 meq/L
LDH ([…], time 14 day): 101.8 IU/L
Na ([…], time 14 day): 140 meq/L
PL ([…], time 14 day): 142.4 mg/dL
RALB ([…], time 14 day): 3.7 g/dL
TBIL ([…], time 14 day): 0.5 mg/dL
TC ([…], time 14 day): 73.6 mg/dL
TG ([…], time 14 day): 82 mg/dL
TP ([…], time 14 day): 5.5 g/dL
gamma-GTP ([…], time 14 day): 1.6 IU/L
A/G ([…], time 28 day): 1.8
ALP ([…], time 28 day): 589.2 IU/L
ALT ([…], time 28 day): 38.4 IU/L
AST ([…], time 28 day): 61.8 IU/L
BUN ([…], time 28 day): 19 mg/dL
CRE ([…], time 28 day): 0.7 mg/dL
Ca ([…], time 28 day): 11 mg/dL
Cl ([…], time 28 day): 103.2 meq/L
DBIL ([…], time 28 day): 0.036 mg/dL
GLC ([…], time 28 day): 187.2 mg/dL
IP ([…], time 28 day): 7.3 mg/dL
K ([…], time 28 day): 4.8 meq/L
LDH ([…], time 28 day): 88.4 IU/L
Na ([…], time 28 day): 140.8 meq/L
PL ([…], time 28 day): 172.8 mg/dL
RALB ([…], time 28 day): 3.9 g/dL
TBIL ([…], time 28 day): 0.3 mg/dL
TC ([…], time 28 day): 96.8 mg/dL
TG ([…], time 28 day): 73.6 mg/dL
TP ([…], time 28 day): 6.1 g/dL
gamma-GTP ([…], time 28 day): 1.4 IU/L
